In patent publication US11820756B2, “Bradykinin B2 receptor antagonists” (Pharvaris Netherlands B.V., priority 2017, dated 2023):

What was measured:
[1] = Caco-2 cell permeability assay (efflux ratio); type: in vitro ADME, human; conditions: human, Caco-2, Papp B to A/Papp A to AB, differentiated Caco-2 cell monolayer; read-out: Caco-2 BA/AB (efflux ratio)
Protocol: (§1) The permeability of the test compounds was determined with a Caco-2 cell permeability assay according to Hubatsch I. et al (Nat. Protoc. 2007, 2 (9), 2111-2119).
(§2) The Caco-2 cell line is a continuous cell of heterogeneous human epithelial colorectal adenocarcinoma cells. When cultured as a confluent monolayer on a permeable support such as a cell culture insert filter, the cells differentiate to form a polarized epithelial cell monolayer that provides a physical and biochemical barrier to the passage of ions and small molecules. In form of the confluent monolayer, the Caco-2 cells serve in the pharmaceutical industry as a well established in vitro model of the human small intestinal mucosa to predict the absorption of orally administered drugs. Assessing transport in both directions (apical to basolateral (A-B) and basolateral to apical (B-A)) across the cell monolayer enables an efflux ratio to be determined which provides an indicator as to whether a compound undergoes active efflux. […] As will be appreciated, active efflux substantially compromises oral bioavailability.

[2] = target: T1, human bradykinin B2 receptor (hB2R) (Homo sapiens, UniProt P30411); assay: cell-based human bradykinin B2 receptor calcium mobilization (hB2R-CaM) assay; conditions: for IC50: HTS041C cells, bradykinin at EC80, calcium mobilization, read-out: IC50-value towards human bradykinin B2 receptor (hB2R)
T1 sequence (P30411 1-391): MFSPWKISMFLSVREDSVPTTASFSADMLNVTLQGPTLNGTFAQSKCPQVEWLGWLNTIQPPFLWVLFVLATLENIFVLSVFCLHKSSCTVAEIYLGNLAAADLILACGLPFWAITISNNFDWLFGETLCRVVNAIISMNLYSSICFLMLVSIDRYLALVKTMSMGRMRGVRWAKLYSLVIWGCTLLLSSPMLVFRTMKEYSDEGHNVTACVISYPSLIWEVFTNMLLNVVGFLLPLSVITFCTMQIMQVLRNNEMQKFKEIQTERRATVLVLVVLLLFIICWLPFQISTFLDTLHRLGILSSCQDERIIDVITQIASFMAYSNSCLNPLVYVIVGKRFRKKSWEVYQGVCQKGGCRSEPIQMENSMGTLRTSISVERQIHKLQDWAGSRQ
How it was run: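 HTS041C cells stably expressing hB2R were serum-reduced, loaded with Calcium 6 dye and pre-incubated with compound (8-point, n=2, 0.1% DMSO) for 25 min at 37° C. Bradykinin was then added at EC80. IC50 came from a 4-parameter logistic fit of the max-min fluorescence signal (485/525 nm).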

[3] = metabolic stability assay in rat liver microsomes; type: in vitro ADME; conditions: for microsomal CLint at 1 μM: pH 7.4, male Wistar rat liver microsomes, 0.5 mg protein/mL, 1 μM test compound, NADPH
Protocol: Hepatic clearance is the most important drug elimination mechanism in the body and many marketed compounds are cleared by hepatic cytochrome P450-mediated metabolism. The excretion or elimination property of the test compounds was determined with a metabolic stability assay according to Obach R S (Drug Metab. Dispos. 1999, 27(11), 1350-1359).
Assays were performed in 96-deepwell-plates using liver microsomes pooled from male Wistar rats (Corning). Rat liver microsomal incubations were conducted in duplicate and incubation mixtures consisted of liver microsomes (0.5 mg microsomal protein/mL), test compound (1 μM), MgCl2 (2 mM), and NADPH (1 mM) in a total volume of 0.7 ml sodium phosphate buffer (100 mM, pH 7.4). Reactions were commenced with the addition of NADPH and shaken on a horizontal shaker with a fitted heating block at 37° C. At t=0 min and the time points: 10 min, 30 min and 60 min; aliquots (70 μL) were removed from the incubations and added to 140 μl termination mixtures. Termination mixtures consisted of acetonitrile supplemented with diazepam, diclofenac and griseofulvin as internal analytical standards. The quenched samples were processed by mixing and centrifugation (2,200×g, 5 minutes). The particle free supernatant was diluted 1+1 with deionised water and subsequently subjected to LC-MS for quantitative bioanalysis in terms of test compound depletion (pump flow rate: 600 μL/min; Kinetex Phenyl-Hexyl analytical column 2.6 μm, 50×2.1 mm (Phenomenex, Germany)). Incubations containing verapamil at a concentration of 1 μM were used as high clearance positive control (PC; n=2), and incubations without NADPH (70 μl phosphate buffer (supplemented with 2 mM MgCl2) instead of 70 μL NADPH solution), in order to verify that any apparent loss of test item in the assay incubation was due to metabolism, were used as negative control (NC; n=2).
Clint data allow to predict the hepatic clearance in vivo, or, in other words, can be used as an indicator for the half life of a compound in vivo and its oral bioavailability. Highly cleared compounds are generally considered to be unfavourable as they are rapidly cleared in vivo resulting in a short duration of action. Said another way, a lower in vitro intrinsic clearance is usually indicative of a longer half life in vivo and of a better oral bioavailability.

[4] = test system: differentiated Caco-2 cell monolayer; assay: Caco-2 cell permeability assay (efflux ratio); type: in vitro ADME, human; conditions: Papp B to A/Papp A to AB
Protocol: as §1, §2

Row | SMILES | efflux ratio [1] | IC50 [2] [nM] | microsomal CLint at 1 μM [3] [µL/min/mg] | fold lower Clint as compared to Comparative Compound No. 171 ([3]; versus Comparative Compound No. 171) [fold] | fold lower Clint as compared to Comparative Compound No. 174 ([3]; versus Comparative Compound No. 174) [fold] | Caco-2 BA/AB (efflux ratio) [4] | fold improvement of relative IC50 as compared to Comparative Compound No. 169 ([2]; versus Comparative Compound No. 169) [fold] | fold improvement of relative IC50 as compared to Comparative Compound No. 172 ([2]; versus Comparative Compound No. 172) [fold]
1 | [2H][C@@](C)(NC(=O)COC(F)F)c1cc(F)cc(Cl)c1COc1cccc2c(-c3ncnn3C)cc(C)nc12 [Compound 11, (S)—N-(1-deutero-1-(3-chloro-5-fluoro-2-((2-methyl-4-(1-methyl-1H-1,2,4-triazol-5-yl)quinolin-8-yloxy)methyl)phenyl)ethyl)-2-(difluoromethoxy)acetamide] | 1.3 | ≤ 50 | 20 | – | – | – | – | –
2 | Cc1cc(-c2ncnn2C)c2cccc(OCc3c(Cl)cc(F)cc3[C@H](C)NC(=O)COC(F)F)c2n1 [Compound 6, (S)—N-(1-(3-chloro-5-fluoro-2-((2-methyl-4-(1-methyl-1H-1,2,4-triazol-5-yl)quinolin-8-yloxy)methyl)phenyl)ethyl)-2-(difluoromethoxy)acetamide] | 1 | ≤ 50 | – | 17.8 | 4.8 | – | – | –
3 | Cc1cc(-n2cc(F)cn2)c2cccc(OCc3c(Cl)cncc3C(C)NC(=O)[C@H](C)O)c2n1 (stereo partly shown) [compound 169] | > 2 | – | 427 | – | – | 3.4 | – | –
4 | Cc1cc(-n2cc(F)cn2)c2cccc(OCc3c(Cl)cc(F)cc3[C@H](C)NC(=O)[C@@H](C)O)c2n1 [Compound 1, (R)—N—((S)-1-(3-chloro-5-fluoro-2-((4-(4-fluoro-1H-pyrazol-1-yl)-2-methylquinolin-8-yloxy)methyl)phenyl)ethyl)-2-hydroxypropanamide] | 0.7 | 51 to 250 | 56 | – | – | – | – | –
5 | Cc1cc(-n2cc(F)cn2)c2cccc(OCc3c(Cl)cc(F)cc3[C@H](C)NC(=O)[C@H](C)O)c2n1 [Compound 13] | 0.6 | 251 to 1000 | 13 | – | – | – | 7.5 | 3.8
6 | Cc1cc(-n2cc(F)cn2)c2cccc(OCc3c(Cl)cncc3C(C)NC(=O)[C@@H](C)O)c2n1 (stereo partly shown) [compound 170] | > 2 | – | 329 | – | – | 2.9 | – | –

Other lines, results leading:

Row | efflux ratio [1] | IC50 [2] [nM] | microsomal CLint at 1 μM [3] [µL/min/mg] | fold lower Clint as compared to Comparative Compound No. 171 ([3]; versus Comparative Compound No. 171) [fold] | fold lower Clint as compared to Comparative Compound No. 174 ([3]; versus Comparative Compound No. 174) [fold] | Caco-2 BA/AB (efflux ratio) [4] | fold improvement of relative IC50 as compared to Comparative Compound No. 169 ([2]; versus Comparative Compound No. 169) [fold] | fold improvement of relative IC50 as compared to Comparative Compound No. 172 ([2]; versus Comparative Compound No. 172) [fold] | SMILES
7 | 1.3 | – | 135 | – | – | – | – | – | Cc1cc(-c2ncnn2C)c2cccc(OCc3c(Cl)cccc3C(C)NC(=O)COC(F)F)c2n1 (stereo not shown) [compound 174, reference compound]
8 | – | – | – | – | – | 7.7 | – | – | Cc1cc(-c2ncnn2C)c2cccc(OCc3c(Cl)cncc3C(C)NC(=O)COC(F)F)c2n1 (stereo not shown) [compound 171]
9 | 1.6 | – | 56 | – | – | – | – | – | Cc1cc(-n2cc(F)cn2)c2cccc(OCc3c(Cl)cccc3C(C)NC(=O)[C@H](C)O)c2n1 (stereo partly shown) [compound 172, reference compound]
10 | 1.1 | – | 132 | – | – | – | – | – | Cc1cc(-n2cc(F)cn2)c2cccc(OCc3c(Cl)cccc3C(C)NC(=O)[C@@H](C)O)c2n1 (stereo partly shown) [compound 173, reference compound]
